Source: paper PMC12459020, “Chemical Probes that Target a Dissociative LuxR-Type Quorum Sensing Receptor in Gram-Negative Bacteria” (ACS Chemical Biology, 2025)

Experiments:
EsaR [1] = biological target: T1, EsaR (Pantoea stewartii subsp. stewartii, UniProt P54293); experiment: cell-based
T1 construct: expressed in transfected cells; host or cells: E. coli JLD271 (K12 ΔsdiA), arabinose-induced pJN105-esaR
How it was run: (§1)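 E. coli carrying arabinose-induced esaR plus pesaS (activated) or pesaR (repressed) promoter fused to lux or GFP; P. stewartii ESN51 GFP reporters also used.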

EsaR [2] = biological target: T1, EsaR; experiment: cell-based; remark: listed apart in the source
How it was run: as §1

EsaR [3] = biological target: T1, EsaR; experiment: P. stewartii ESN51 (ΔesaI) GFP reporter with EsaR-activated promoter (pesaS); format: cell-based
Source text: (§2) EsaR transcriptional activation and repression were examined using E. coli and P. stewartii reporters (strains and plasmids listed in Table S1; see Methods section for assay details). […] We constructed reporters in E. coli based on previously reported EsaR reporters (Table S1). Each strain contained an EsaR expression plasmid (pJN105-esaR) and a reporter plasmid with either an EsaR-activated promoter (pesaS) or an EsaR-repressed promoter (pesaR) upstream of luxABCDE or GFP.
(§3) Gibson assembly was used to create all constructs. Plasmid pJN105-esaR was created by amplifying esaR from pAC-esaR and inserting it into pJN105. pesaSlux was created by inserting pesaS, amplified from pPesaR-AC:gfp, into the pCS-pesaRlux backbone. The pesaR promoter was amplified from pCS-pesaRlux and inserted into the pPesaR-AC:gfp backbone to create pesaR:GFP. P. stewartii reporter strains were created by transforming pesaR:GFP or pPesaR-AC:gfp into ESN51 by conjugation using E. coli S17 λpir as the donor strain. See SI for details of E. coli ExpR2 reporter construction.
(§4) Compound stocks were prepared and plated as described for E. coli reporter assays. […] Cultures were diluted to an OD600 of 0.05, and 198 μL was added to each well of a clear-bottom, black 96-well plate and incubated for 6 h at 28 °C (200 rpm) before reading fluorescence and OD600.

EsaR [4] = biological target: T1, EsaR; experiment: P. stewartii ESN51 (ΔesaI) GFP reporter with EsaR-repressed promoter (pesaR); format: cell-based
Source text: as §2, §3, §4

P. stewartii ESN51 = format: cell-based, Pantoea stewartii; conditions: OD600; 100 µM–1 mM tested
Source text: We were curious whether the EsaR agonists identified in the E. coli reporters were also active in EsaR’s native host organism. In past studies, some E. coli LuxR-type receptor reporters have yielded EC50 values for exogenous ligands that differ by orders of magnitude relative to reporters constructed in native bacteria. Overexpression of LuxR-type receptors in E. coli has been proposed to lead to increased DNA binding and an overestimation of associative receptor sensitivity to agonists, as measured with lower EC50 values. However, because dissociative LuxR-type receptors bind to DNA in the absence of ligand, high receptor expression could instead lead to an underestimate of agonism. To account for any unintended effects of the E. coli genetic background and test compound activity at native levels of EsaR, we created genetic reporters in P. stewartii (see above and Methods section for details).
Supporting Information — Stoutland et al. […]
interesting that constitutive activituy (uninduced) from pesaR promoter is so much 2 4 6 […]
ESN51 pesaR-AC:GFP ESN51 pesaR:GFP
Figure S1. Luminescence inhibition, dynamic range, and growth of reporter strains. […]
(also on this page, place not known: 102 104 106 percent activation (GFP/OD600 - JLD)/3OC6 Normalized luminescence ✱✱✱✱✱✱✱✱ controls GFP/OD600 pesaS OD600 GAF 0.3 0.4 OD600 1mM 300µM)

[5] = Solubility remark on supplementary figure page; format: physicochemical; conditions: stray annotation on SI page 6

T1 sequence (P54293 whole entry): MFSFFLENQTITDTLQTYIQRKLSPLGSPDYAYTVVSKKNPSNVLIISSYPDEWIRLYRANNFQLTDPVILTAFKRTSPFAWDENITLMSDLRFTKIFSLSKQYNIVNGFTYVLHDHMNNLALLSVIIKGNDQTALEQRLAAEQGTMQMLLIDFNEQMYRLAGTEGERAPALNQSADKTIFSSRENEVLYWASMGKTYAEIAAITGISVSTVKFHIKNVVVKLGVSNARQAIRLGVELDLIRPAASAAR

With `O=C1OCC[C@@H]1NS(=O)(=O)c1ccc(Br)cc1` [GAF 35] the EC50 (EsaR [1]) was 23 µM, the EC50 (EsaR [2]) was 23 µM and the EC50 (EsaR [3]) was 24 µM. For the same compound, the EC50 (EsaR [4]) was 27 µM and the “growth inhibition in P. stewartii ESN51 reporters” value (P. stewartii ESN51) was “Growth inhibition”.
In the case of `O=C(N[C@H]1CCOC1=O)c1ccc(Cl)c(Cl)c1` [GAF 58], the “EsaR agonism at 100 μM (bound stated in text)” value (EsaR [2]; 100 μM, E. coli EsaR reporter) is reported as “less than 50%” and the solubility remark [5] is reported as “slighly insoluble”.
In the case of `O=C1OCC[C@@H]1NS(=O)(=O)c1ccc(Cl)c(F)c1` [GAF 64, 3-F, 4-Cl BSHL], the EC50 (EsaR [3]) is reported as 2.7 µM, the EC50 (EsaR [4]) is reported as 6.7 µM and the “growth inhibition in P. stewartii ESN51 reporters” value (P. stewartii ESN51) is reported as “Growth inhibition”.
